Patent US20100104567A1, “PHARMACEUTICAL COMPOSITION” (KYOWA HAKKO KIRIN CO., LTD., priority 2007, published 2010)
Like-named read-outs stand apart in the source and are kept apart here.

How the values were obtained:
[1] = system: human colon cancer Colo205 cells; assay: Antitumor effect of Flt-3 inhibitor and 5-fluorouracil (5-FU) in mouse models transplanted with Colo205 cells; type: in vivo; settings: day 7; BALB/cAJcl-nu mice, s.c. Colo205; Compound 9 20 mg/kg oral twice a day x 5 days; 5-FU 10 mg/kg i.v. once a day x 5 days
[2] = system: human renal cancer Caki-1 cells; assay: Antitumor effect of Flt-3 inhibitor and sunitinib in mouse models transplanted with Caki-1 cells; settings: day 18; BALB/cAJcl-nu mice, s.c. Caki-1 tumor pieces; Compound 9 50 mg/kg oral twice a day days 0-4; sunitinib 40 mg/kg oral twice a day x 5 days (alone days 0-4, combined days 7-11)
[3] = system: human colon cancer Colo205 cells; assay: Antitumor effect of Flt-3 inhibitor and irinotecan in mouse models transplanted with Colo205 cells; type: in vivo; settings: day 11; BALB/cAJcl-nu mice, s.c. Colo205; Compound 9 20 mg/kg oral twice a day x 5 days; irinotecan 67 mg/kg i.v. days 0 and 3
Procedure: [formula] […] Irinotecan was suspended in physiological saline at a concentration of 6.7 mg/mL. […] A. […] B. […] C. Irinotecan alone group: 67 mg/kg (once a day/days zero and 3 after the start of administration) D.

[4] = system: human pancreatic cancer MIA-Paca-2 cells; assay: Antitumor effect of Flt-3 inhibitor and gemcitabine in mouse models transplanted with MIA-Paca-2 cells; type: in vivo; settings: day 24; scid mice, s.c. MIA-PaCa-2; Compound 9 25 mg/kg oral twice a day x 5 days; gemcitabine 60 mg/kg i.v. days 0, 3, 7, 10
Procedure: [formula] […] A. […] B. […] C. Gemcitabine alone group: 60 mg/kg (once a day/days zero, 3, 7, and 10 after the start of administration) D.

[5] = system: human pancreatic cancer MIA-Paca-2 cells; assay: Antitumor effect of Flt-3 inhibitor and cetuximab in mouse models transplanted with MIA-Paca-2 cells; type: in vivo; settings: day 24; scid mice, s.c. MIA-PaCa-2; Compound 9 50 mg/kg oral twice a day x 5 days; cetuximab 2.5 mg/head i.v. days 0, 3, 6, 9, 12
[6] = system: human acute myeloid leukemia MOLM-13 cells; assay: Antitumor effect of Flt-3 inhibitor and cytarabine in mouse models transplanted with MOLM-13 cells; settings: day 14; scid mice, s.c. MOLM-13; Compound 9 5 mg/kg oral twice a day x 14 days; cytarabine 75 mg/kg i.v. once a day x 5 days
[7] = system: human acute myeloid leukemia MOLM-13 cells; assay: Antitumor effect of Flt-3 inhibitor and Hsp90 inhibitor in mouse models transplanted with MOLM-13 cells; type: in vivo; settings: day 7; scid mice, s.c. MOLM-13; Compound P 12.5 mg/kg i.v. twice a day x 5 days; Compound 9 10 mg/kg oral twice a day x 5 days
[8] = system: human acute myeloid leukemia HL-60 cells; assay: Antitumor effect of Flt-3 inhibitor and daunorubicin in mouse models transplanted with HL-60 cells; type: in vivo; settings: day 17; scid mice, s.c. HL-60; Compound 9 20 mg/kg oral twice a day x 14 days; daunorubicin 2.5 mg/kg i.v. once a day x 3 days
Procedure: B. Compound 9 alone group: 20 mg/kg (twice a day×14 days)
C. Daunorubicin alone group: 2.5 mg/kg (once a day×3 days)
D. Compound 9+daunorubicin: 20 mg/kg (twice a day×14 days) for Compound 9, and 2.5 mg/kg (once a day×3 days) for daunorubicin

[9] = system: human renal cancer Caki-1 cells; settings: day 10; BALB/cAJcl-nu mice, s.c. Caki-1 tumor pieces; Compound 9 25 mg/kg oral twice a day x 5 days; erlotinib 50 mg/kg oral once a day x 5 days

O=c1[nH]cc(F)c(=O)[nH]1 [Compound 5-FU, 5-fluorouracil, reference compound]
T/C (V/V0 of group divided by V/V0 of negative control group) [1]: 0.81

O=C(c1ccc(/C=C/c2n[nH]c3ccccc23)cc1)N1CCNCC1 [Compound 9]
T/C (V/V0 of group divided by V/V0 of negative control group) [2]: 0.50
T/C (V/V0 of group divided by V/V0 of negative control group) [3]: 0.75
T/C (V/V0 of group divided by V/V0 of negative control group) [4]: 0.84
T/C (V/V0 of group divided by V/V0 of negative control group) [5]: 0.59
T/C (V/V0 of group divided by V/V0 of negative control group) [6]: 0.29
T/C (V/V0 of group divided by V/V0 of negative control group) [7]: 0.29
T/C (V/V0 of group divided by V/V0 of negative control group) [1]: 0.68
T/C (V/V0 of group divided by V/V0 of negative control group) [8]: 0.42
T/C (V/V0 of group divided by V/V0 of negative control group) [9]: 0.71

CCc1c(O)cc(O)c(C(=O)c2ccc(OCCN3CCOCC3)c(OC)c2)c1CC(=O)N(CCOC)CCOC [Compound P, 2-{2-ethyl-3,5-dihydroxy-6-[3-methoxy-4-(2-morpholinoethoxy)benzoyl]pheny1]-N,N-bis(2-methoxyethyl)acetamide, reference compound]
T/C (V/V0 of group divided by V/V0 of negative control group) [7]: 0.53

Nc1ccn([C@@H]2O[C@H](CO)[C@@H](O)[C@@H]2O)c(=O)n1 [Cytarabine, reference compound]
T/C (V/V0 of group divided by V/V0 of negative control group) [6]: 0.62

COc1cccc2c1C(=O)c1c(O)c3c(c(O)c1C2=O)C[C@@](O)(C(C)=O)C[C@@H]3O[C@H]1C[C@H](N)[C@H](O)[C@H](C)O1 [Daunorubicin, reference compound]
T/C (V/V0 of group divided by V/V0 of negative control group) [8]: 0.61

C#Cc1cccc(Nc2ncnc3cc(OCCOC)c(OCCOC)cc23)c1 [Erlotinib, reference compound]
T/C (V/V0 of group divided by V/V0 of negative control group) [9]: 0.89

Nc1ccn([C@@H]2O[C@H](CO)[C@@H](O)C2(F)F)c(=O)n1 [Gemcitabine, reference compound]
T/C (V/V0 of group divided by V/V0 of negative control group) [4]: 0.57

CCc1c2c(nc3ccc(OC(=O)N4CCC(N5CCCCC5)CC4)cc13)-c1cc3c(c(=O)n1C2)COC(=O)[C@]3(O)CC [Irinotecan, reference compound]
T/C (V/V0 of group divided by V/V0 of negative control group) [3]: 0.65

CCN(CC)CCNC(=O)c1c(C)[nH]c(/C=C2\C(=O)Nc3ccc(F)cc32)c1C [Sunitinib, reference compound]
T/C (V/V0 of group divided by V/V0 of negative control group) [2]: 0.62
